Bounds are passed on as bounds.

The text below walks through data of patent publication US12084430B2, “Tricyclic urea compounds as JAK2 V617F inhibitors” (Incyte Corporation, priority 2022, dated 2024).

In data set [1] the test system is STAT5 (Tyr694) phosphorylation in SET-2 cells. The data set is described as follows: STAT5 (Tyr694) phosphorylation cell based assay. Particulars: Homo sapiens, pSTAT5, 2 hours, read-out: SET2 IC50. An outline of the steps:
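SET-2 cells (7×10^6 cells/mL, RPMI 10% FBS, 0.5% DMSO) treated with compound 2 h at 37 °C, then lysed 90 min at RT. Phospho-STAT5 (Tyr694) detected by HTRF sandwich antibodies after 24 h at RT, 665/620 ratio. IC50 from percent control activity versus log concentration, DMSO and high-concentration control compound as references.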

Data set [2] is described as follows: In vitro intrinsic clearance. The format is in vitro ADME. Particulars: human liver microsomes, 1 μM. An outline of the steps: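 Compound at 1 μM was incubated at 37° C with human liver microsomes (0.5 mg protein/mL) and 2 mM NADPH in pH 7.4 phosphate buffer, sampled at 0–30 min and analysed by LC-MS/MS. CLint was derived from t1/2 of depletion and scaled to human hepatic clearance with the well-stirred model (Q 20 mL·min^−1·kg^−1).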

Data set [3] deals with pSTAT5 signaling in SET-2 cells in whole blood. In words: pSTAT5 SET-2 whole blood MSD assay. Particulars: Homo sapiens, pSTAT5, 2 hour, read-out: SET2 WB IC50. Type of data set: cell-based. As for the experimental part: Example F. pSTAT5 SET-2 Whole Blood MSD Assay
SET-2 cells shipped from ABS, RPMI1640 medium, Fetal Bovine Serum from Gibco, Phospho-STAT5a,b Whole Cell Lysate Kit from Mesoscale, Retronectin (Recombinant Human Fibronectin Fragment) from TaKaRa, 96 well cell culture plate flat bottom from Corning, lysis buffer from Cell Signaling Technology, and sterile PBS from Gibco. Whole Blood from by BioIVT.
SET-2 cells were cultured in RPMI media with 20% FBS at 37° C. humidified incubator supplied with 5% CO2. On the day of the assay, 40 uL per well of diluted retronectin working solution was added to sterile 96-well clear flat bottom tissue culture plates (1:200 dilution of retronectin in sterile PBS) and incubated at 37 C for 1 hour. After 1 hour, the retronectin working solution was aspirated and SET-2 cells were seeded at 100,000/well in RPMI+20% FBS. Cells were incubated overnight at 37° C. and 5% CO2. The next day, the medium was removed and 40 μL of diluted compounds in serum-free RPMI and whole blood was added to the cells for a 2 hour incubation at 37° C. and 5% CO2. The compound starting concentration is 20 μM and 2.5 fold serial diluted down to 0.21 nM. The whole blood and compound mixture was then aspirated off using the BlueCat plate washer and washed 1× with PBS. Cells were lysed by adding 40 μL of 3× complete lysis buffer and shaken at room temperature for 45-60 minutes (complete lysis buffer consists of Cell Signaling Technology lysis buffer diluted to 3× and supplemented with Mesoscale's protease inhibitor, phosphatase I inhibitor, and phosphatase II inhibitor). The pSTAT5 MSD plates were blocked by adding 150 μL of Blocker A solution per well to the MSD plates and incubated at room temperature with shaking at 400 rpm for one hour or longer. After blocking, plates were washed 3× with 300 μL/well of IX Tris Wash Buffer. After lysis, added 25 μL per well of lysed sample was added to MSD plate and incubated with shaking at 4° C. wrapped in foil overnight. The next day, plates were washed again and 25 μL/well of diluted 1× Detection Antibody Solution, wrapped in foil, and incubated at room temperature with shaking at 400 rpm for 1 hour. Plates were then washed again and lastly, 150 μL/well of 1× Read Buffer T was added to all wells. Plates were analyzed on MSD Discovery within 5 minutes. […] Data analysis was performed in GraphPad Prism using a 4-parameter fit and data was reported as Average±SD.

Regarding `[2H]C([2H])([2H])n1ncc2cc(-c3c(-c4cn(C([2H])([2H])C([2H])([2H])[2H])nc4F)[nH]c4ncc5c(c34)n([C@@H]3CC[C@@H](NC(=O)OC)C3)c(=O)n5C([2H])([2H])[2H])ccc21` [Example 15, Methyl ((1R,3R)-3-(7-(1-(ethyl-d5)-3-fluoro-1H-pyrazol-4-yl)-3-(methyl-d3)-8-(1-(methyl-d3)-1H-indazol-5-yl)-2-oxo-3,6-dihydroimidazo[4,5-d]pyrrolo[2,3-b]pyridin-1(2H)-yl)cyclopentyl)carbamate], the 50% inhibitory concentration (IC50) in data set [1] was no more than 300 nM; in data set [3] it was no more than 2500 nM. Further, in data set [2], the h-IntCL entry is “‡ ‡ (h-IntCL of ≥0.7 L/h/kg to ≤1 L/h/kg)”.

On to `[2H]C([2H])([2H])n1cc(-c2[nH]c3ncc4c(c3c2-c2ccc3c(cnn3C(C)C)c2)n([C@@H]2CC[C@@H](NC(=O)OC)C2)c(=O)n4C)c(F)n1` [Example 16, Methyl ((1R,3R)-3-(7-(3-fluoro-1-(methyl-d3)-1H-pyrazol-4-yl)-8-(1-isopropyl-1H-indazol-5-yl)-3-methyl-2-oxo-3,6-dihydroimidazo[4,5-d]pyrrolo[2,3-b]pyridin-1(2H)-yl)cyclopentyl)carbamate], for which the IC50 in data set [1] was no more than 300 nM; in data set [3], no more than 2500 nM. In data set [2], the h-IntCL result is “‡ ‡ (h-IntCL of ≥0.7 L/h/kg to ≤1 L/h/kg)”.

Take `[2H]C([2H])([2H])n1cc(-c2[nH]c3ncc4c(c3c2-c2cc(F)c3c(cnn3C([2H])([2H])[2H])c2)n([C@@H]2CC[C@@H](NC(=O)OC)C2)c(=O)n4C([2H])([2H])[2H])c(F)n1` [Example 17, Methyl ((1R,3R)-3-(8-(7-fluoro-1-(methyl-d3)-1H-indazol-5-yl)-7-(3-fluoro-1-(methyl-d3)-1H-pyrazol-4-yl)-3-(methyl-d3)-2-oxo-3,6-dihydroimidazo[4,5-d]pyrrolo[2,3-b]pyridin-1(2H)-yl)cyclopentyl)carbamate]: the results for the IC50 in data set [1] and in data set [3] were no more than 300 nM and no more than 2500 nM, respectively. In addition, the h-IntCL entry in data set [2] is reported as “‡ ‡ (h-IntCL of ≥0.7 L/h/kg to ≤1 L/h/kg)”.

With `[2H]C([2H])([2H])n1cc(-c2[nH]c3ncc4c(c3c2-c2ccc3c(cnn3CC(F)F)c2)n([C@@H]2CC[C@@H](NC(=O)OC)C2)c(=O)n4C)c(F)n1` [Example 18, Methyl ((1R,3R)-3-(8-(1-(2,2-difluoroethyl)-1H-indazol-5-yl)-7-(3-fluoro-1-(methyl-d3)-1H-pyrazol-4-yl)-3-methyl-2-oxo-3,6-dihydroimidazo[4,5-d]pyrrolo[2,3-b]pyridin-1(2H)-yl)cyclopentyl)carbamate], the IC50 in data set [1] was no more than 300 nM; in data set [3], no more than 2500 nM. In addition, the h-IntCL entry in data set [2] is listed as “‡ ‡ (h-IntCL of ≥0.7 L/h/kg to ≤1 L/h/kg)”.

As for `[2H]C([2H])([2H])n1c(=O)n([C@@H]2CC[C@@H](NC(=O)OC)C2)c2c3c(-c4ccc5c(c4)COC5(C)C)c(-c4cn(C([2H])([2H])C([2H])([2H])[2H])nc4F)[nH]c3ncc21` [Example 19, Methyl ((1R,3R)-3-(8-(1,1-dimethyl-1,3-dihydroisobenzofuran-5-yl)-7-(1-(ethyl-d5)-3-fluoro-1H-pyrazol-4-yl)-3-(methyl-d3)-2-oxo-3,6-dihydroimidazo[4,5-d]pyrrolo[2,3-b]pyridin-1(2H)-yl)cyclopentyl)carbamate], the IC50 in data set [1] is no more than 300 nM; in data set [3] it was no more than 2500 nM. Also, in data set [2], the h-IntCL result is on record as “‡ ‡ (h-IntCL of ≥0.7 L/h/kg to ≤1 L/h/kg)”.

As for `[2H]C([2H])([2H])n1c(=O)n([C@@H]2CC[C@@H](NC(=O)OC)C2)c2c3c(-c4ccc5c(c4)COC5(C)C)c(-c4cn(CC)nc4F)[nH]c3ncc21` [Example 20, Methyl ((1R,3R)-3-(8-(1,1-dimethyl-1,3-dihydroisobenzofuran-5-yl)-7-(1-ethyl-3-fluoro-1H-pyrazol-4-yl)-3-(methyl-d3)-2-oxo-3,6-dihydroimidazo[4,5-d]pyrrolo[2,3-b]pyridin-1(2H)-yl)cyclopentyl)carbamate], the IC50 in data set [1] was no more than 300 nM; in data set [3], no more than 2500 nM. Further, in data set [2], the h-IntCL entry is reported as “‡ ‡ (h-IntCL of ≥0.7 L/h/kg to ≤1 L/h/kg)”.

Take `[2H]C([2H])([2H])n1ncc2cc(-c3c(-c4cn(C([2H])(C([2H])([2H])[2H])C([2H])([2H])[2H])nc4F)[nH]c4ncc5c(c34)n([C@@H]3CC[C@@H](NC(=O)OC)C3)c(=O)n5C([2H])([2H])[2H])ccc21` [Example 21, Methyl ((1R,3R)-3-(7-(3-fluoro-1-(propan-2-yl-d7)-1H-pyrazol-4-yl)-3-(methyl-d3)-8-(1-(methyl-d3)-1H-indazol-5-yl)-2-oxo-3,6-dihydroimidazo[4,5-d]pyrrolo[2,3-b]pyridin-1(2H)-yl)cyclopentyl)carbamate]: the half-maximal inhibitory concentration (IC50) in data set [1] was no more than 300 nM; in data set [3], no more than 2500 nM. The h-IntCL result in data set [2] is recorded as “‡ ‡ (h-IntCL of ≥0.7 L/h/kg to ≤1 L/h/kg)”.
